Data taken from patent US8765727B2, “Macrocyclic compounds and their use as kinase inhibitors” (Incyte Corporation, priority 2009, dated 2014).

How the values were obtained:
Type in all cases: biochemical
[1] = target: human JAK1 (a.a. 837-1142) catalytic domain (Homo sapiens, UniProt P23458); assay: In vitro JAK kinase assay (HTRF), JAK1; settings: 90 μM ATP, 500 nM peptide, room temperature 1 hr
Experimental: (§1) One or more compounds herein were tested for inhibitory activity of JAK targets according to the following in vitro assay described in Park et al., Analytical Biochemistry 1999, 269, 94-104. The catalytic domains of human JAK1 (a.a. 837-1142), JAK2 (a.a. 828-1132) and JAK3 (a.a. 781-1124) with an N-terminal His tag were expressed using baculovirus in insect cells and purified. The catalytic activity of JAK1, JAK2 or JAK3 was assayed by measuring the phosphorylation of a biotinylated peptide. The phosphorylated peptide was detected by homogenous time resolved fluorescence (HTRF). […] The ATP concentration in the reactions was 90 μM for JAK1, 30 μM for JAK2 and 3 μM for JAK3. Reactions were carried out at room temperature for 1 hr and then stopped with 20 μL 45 mM EDTA, 300 nM SA-APC, 6 nM Eu-Py20 in assay buffer (Perkin Elmer, Boston, Mass.). Binding to the Europium labeled antibody took place for 40 minutes and HTRF signal was measured on a Fusion plate reader (Perkin Elmer, Boston, Mass.).

[2] = target: human JAK2 (a.a. 828-1132) catalytic domain (Homo sapiens (Human), UniProt O60674); assay: In vitro JAK kinase assay (HTRF), JAK2; settings: 30 μM ATP, 500 nM peptide, room temperature 1 hr
Experimental: One or more compounds herein were tested for inhibitory activity of JAK targets according to the following in vitro assay described in Park et al., Analytical Biochemistry 1999, 269, 94-104. The catalytic domains of human JAK1 (a.a. 837-1142), JAK2 (a.a. 828-1132) and JAK3 (a.a. 781-1124) with an N-terminal His tag were expressed using baculovirus in insect cells and purified. The catalytic activity of JAK1, JAK2 or JAK3 was assayed by measuring the phosphorylation of a biotinylated peptide. The phosphorylated peptide was detected by homogenous time resolved fluorescence (HTRF). […] Binding to the Europium labeled antibody took place for 40 minutes and HTRF signal was measured on a Fusion plate reader (Perkin Elmer, Boston, Mass.).

[3] = target: human JAK3 (a.a. 781-1124) catalytic domain (Homo sapiens (Human), UniProt P52333); assay: In vitro JAK kinase assay (HTRF), JAK3; settings: 3 μM ATP, 500 nM peptide, room temperature 1 hr
Experimental: as §1

TYK2 = TYK2 (Homo sapiens (Human), UniProt P29597); assay: TYK2 assay (as described by Thompson et al.)
Excerpt: The invention will be described in greater detail by way of specific examples. The following examples are offered for illustrative purposes, and are not intended to limit the invention in any manner. Those of skill in the art will readily recognize a variety of non-critical parameters which can be changed or modified to yield essentially the same results. In some instances where the compounds of the examples were isolated by preparative HPLC in the presence of trifluoroacetic acid (TFA) or other acid, the compound may have been obtained as the corresponding salt. […] Certain compounds described in Tables 1 and in the Example section were tested for inhibitory activity of JAK/ALK targets according to assays such as those described herein or those known in the art [e.g., ALK assays described in WO 04/079326; and TYK2 assays described by James E. Thompson et. al, “Photochemical preparation of a pyridone containing tetracycle: A JAK protein kinase inhibitor,” Bioorganic & Medicinal Chemistry Letters, Volume 12, Issue 8, 22 Apr. 2002, Pages 1219-1223]. […] Some exemplary data of the compounds of the invention are shown in Table 1 in the experimental section.

[4] = target: Recombinant Human Anaplastic Lymphoma Kinase (Homo sapiens (Human), UniProt Q9UM73); assay: ALK HTRF kinase assay; settings: 90 μM ATP, 0.25 nM enzyme, 2 hours at 25° C.
Experimental: Materials: Recombinant Human Anaplastic Lymphoma Kinase was purchased from Invitrogen, Carlsbad, Calif. Peptide substrate (Biotin-[…]-amide) was custom synthesized at EZBiolab, Westfield, Ind. Streptavidin conjugated SureLight-Allophycocyania and LANCE Eu-W1024 labeled anti-phosphotyrosine antibody were from Perkin-Elmer, Boston, Mass. Microplates were from Corning Inc., Acton, Mass. All other reagents were from Sigma, St. Louis, Mo.
HTRF kinase assay: 40 μL reactions were run in black 384 well polystyrene plates in assay buffer (50 mM Tris, pH 7.8, 100 mM NaCI, 0.1 mg/mL BSA, 5 mM DTT), containing 0.5 μM Biotinylated peptide substrate, 10 mM MgCl2, 90 μM ATP, and 0.25 nM enzyme for 2 hours at 25° C. Reactions were stopped by addition of 20 μL assay buffer supplemented with an additional 50 mM NaCl, 0.4 mg/mL BSA, 45 mM EDTA, 4.5 nM LANCE Eu-W1024 labeled anti-phosphotyrosine antibody and 200 nM streptavidin conjugated SureLight-allophycocyanin. Plates were read in Fusion α-FP instrument (Perkin-Elmer). The concentrations needed to reach 50% inhibition, the IC50 value, were determined by fitting the assay signal to the following equation using Graphpad Prizm. Signal=Bottom+(Top−Bottom)/(1+10^((Log(IC50)−Log [I])*Hill Slope) Bottom and Top refer to the post and pre-transition baselines, respectively.

human JAK2 (a.a. 828-1132) catalytic domain, sequence (O60674 828-1132): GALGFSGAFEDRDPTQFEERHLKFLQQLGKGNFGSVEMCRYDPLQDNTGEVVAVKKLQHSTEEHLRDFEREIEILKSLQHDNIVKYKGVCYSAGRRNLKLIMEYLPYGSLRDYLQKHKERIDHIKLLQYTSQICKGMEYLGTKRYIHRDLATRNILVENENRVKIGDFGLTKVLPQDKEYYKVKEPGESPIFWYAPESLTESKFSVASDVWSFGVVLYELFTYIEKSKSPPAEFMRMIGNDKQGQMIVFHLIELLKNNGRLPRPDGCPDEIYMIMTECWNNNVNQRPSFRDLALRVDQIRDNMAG
Recombinant Human Anaplastic Lymphoma Kinase, sequence (Q9UM73 19-1620): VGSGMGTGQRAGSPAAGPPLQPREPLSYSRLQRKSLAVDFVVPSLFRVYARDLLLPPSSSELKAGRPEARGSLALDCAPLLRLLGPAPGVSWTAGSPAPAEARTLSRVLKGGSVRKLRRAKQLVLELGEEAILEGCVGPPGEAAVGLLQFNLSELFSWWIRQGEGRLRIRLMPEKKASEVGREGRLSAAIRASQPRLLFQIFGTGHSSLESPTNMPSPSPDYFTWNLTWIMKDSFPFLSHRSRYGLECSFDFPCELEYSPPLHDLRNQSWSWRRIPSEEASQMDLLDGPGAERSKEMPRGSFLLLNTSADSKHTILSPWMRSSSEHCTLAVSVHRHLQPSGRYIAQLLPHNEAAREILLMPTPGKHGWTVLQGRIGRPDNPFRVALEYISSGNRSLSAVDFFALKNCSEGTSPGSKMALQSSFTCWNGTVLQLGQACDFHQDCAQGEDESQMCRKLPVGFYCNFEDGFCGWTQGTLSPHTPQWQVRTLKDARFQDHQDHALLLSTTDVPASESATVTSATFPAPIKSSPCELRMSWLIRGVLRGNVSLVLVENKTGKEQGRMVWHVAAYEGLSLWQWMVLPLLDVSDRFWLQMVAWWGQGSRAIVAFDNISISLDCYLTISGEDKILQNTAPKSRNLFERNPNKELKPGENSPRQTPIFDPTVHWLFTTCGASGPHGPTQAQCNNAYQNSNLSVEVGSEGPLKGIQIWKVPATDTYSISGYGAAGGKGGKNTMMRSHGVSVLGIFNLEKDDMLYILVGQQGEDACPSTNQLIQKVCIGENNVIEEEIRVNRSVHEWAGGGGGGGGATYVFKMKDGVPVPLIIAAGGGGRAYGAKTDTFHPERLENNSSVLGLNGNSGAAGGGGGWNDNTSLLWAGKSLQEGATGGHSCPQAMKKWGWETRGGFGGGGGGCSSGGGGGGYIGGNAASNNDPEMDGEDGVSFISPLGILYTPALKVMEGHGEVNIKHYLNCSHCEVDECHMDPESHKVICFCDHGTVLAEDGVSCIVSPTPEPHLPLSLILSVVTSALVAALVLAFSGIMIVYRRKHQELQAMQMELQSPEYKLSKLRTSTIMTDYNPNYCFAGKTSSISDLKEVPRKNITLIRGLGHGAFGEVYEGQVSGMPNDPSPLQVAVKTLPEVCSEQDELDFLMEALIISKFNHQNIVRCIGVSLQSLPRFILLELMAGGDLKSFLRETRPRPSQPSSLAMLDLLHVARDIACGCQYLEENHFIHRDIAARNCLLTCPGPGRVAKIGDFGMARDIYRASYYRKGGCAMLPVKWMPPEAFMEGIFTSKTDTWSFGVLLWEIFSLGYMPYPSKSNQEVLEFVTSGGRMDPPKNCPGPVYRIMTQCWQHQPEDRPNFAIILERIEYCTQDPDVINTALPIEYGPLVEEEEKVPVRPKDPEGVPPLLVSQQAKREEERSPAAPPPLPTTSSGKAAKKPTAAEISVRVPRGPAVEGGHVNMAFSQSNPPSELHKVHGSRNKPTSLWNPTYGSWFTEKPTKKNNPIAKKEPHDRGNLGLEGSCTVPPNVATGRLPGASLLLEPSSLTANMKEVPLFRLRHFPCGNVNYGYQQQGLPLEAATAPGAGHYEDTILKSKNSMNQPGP
human JAK3 (a.a. 781-1124) catalytic domain, sequence (P52333 781-1124): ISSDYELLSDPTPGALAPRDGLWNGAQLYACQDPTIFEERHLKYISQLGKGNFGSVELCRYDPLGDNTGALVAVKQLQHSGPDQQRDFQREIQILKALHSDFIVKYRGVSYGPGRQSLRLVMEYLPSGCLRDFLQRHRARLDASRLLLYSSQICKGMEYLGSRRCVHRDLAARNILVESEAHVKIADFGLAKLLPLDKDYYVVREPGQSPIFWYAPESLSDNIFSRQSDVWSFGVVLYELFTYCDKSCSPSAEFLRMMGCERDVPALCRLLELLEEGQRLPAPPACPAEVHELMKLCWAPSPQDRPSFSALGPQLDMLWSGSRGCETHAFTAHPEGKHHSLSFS
TYK2, sequence (P29597 whole entry, species assumed): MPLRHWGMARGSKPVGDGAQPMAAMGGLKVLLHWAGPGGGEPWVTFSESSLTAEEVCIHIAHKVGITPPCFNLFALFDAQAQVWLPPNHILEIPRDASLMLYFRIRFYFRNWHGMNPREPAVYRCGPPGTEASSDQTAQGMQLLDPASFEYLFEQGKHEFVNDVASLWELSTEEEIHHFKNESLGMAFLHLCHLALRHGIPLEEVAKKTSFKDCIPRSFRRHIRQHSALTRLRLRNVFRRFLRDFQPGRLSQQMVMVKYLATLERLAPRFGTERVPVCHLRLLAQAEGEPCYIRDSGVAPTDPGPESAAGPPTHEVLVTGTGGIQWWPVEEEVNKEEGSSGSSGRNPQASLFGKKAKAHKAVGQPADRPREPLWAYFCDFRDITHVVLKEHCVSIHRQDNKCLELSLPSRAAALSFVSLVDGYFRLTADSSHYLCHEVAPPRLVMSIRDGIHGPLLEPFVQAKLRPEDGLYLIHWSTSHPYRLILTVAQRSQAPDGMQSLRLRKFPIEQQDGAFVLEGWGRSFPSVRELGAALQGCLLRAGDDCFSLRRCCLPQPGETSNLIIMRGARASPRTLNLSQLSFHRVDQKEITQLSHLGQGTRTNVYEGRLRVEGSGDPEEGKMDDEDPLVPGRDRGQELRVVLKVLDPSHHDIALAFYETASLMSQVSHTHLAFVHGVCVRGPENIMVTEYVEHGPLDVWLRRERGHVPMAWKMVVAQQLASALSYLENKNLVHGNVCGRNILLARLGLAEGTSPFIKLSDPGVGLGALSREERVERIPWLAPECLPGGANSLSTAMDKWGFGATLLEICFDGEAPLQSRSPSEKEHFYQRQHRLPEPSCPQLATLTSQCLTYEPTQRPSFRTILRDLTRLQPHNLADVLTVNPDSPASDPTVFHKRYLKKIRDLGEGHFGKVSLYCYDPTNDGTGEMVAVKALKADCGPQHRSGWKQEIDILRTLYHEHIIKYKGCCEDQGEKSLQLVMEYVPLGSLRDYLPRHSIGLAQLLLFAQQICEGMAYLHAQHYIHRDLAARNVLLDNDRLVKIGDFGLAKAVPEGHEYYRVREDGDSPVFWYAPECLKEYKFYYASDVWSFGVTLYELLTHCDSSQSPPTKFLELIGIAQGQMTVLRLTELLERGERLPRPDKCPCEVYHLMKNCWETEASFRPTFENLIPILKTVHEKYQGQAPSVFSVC

Nc1ccc2cc1CCc1cncc(c1)Nc1ncc(Cl)c(n1)NC2 [Example 17, 6-Chloro-2,4,8,19,23-pentaazatetracyclo[15.3.1.1(3,7).1(10,14)]tricosa-1(21),3(23),4,6,10(22),11,13,17,19-nonaen-13-amine]
IC50 [1]: 102 nM
IC50 [2]: 447 nM
IC50 [3]: 114 nM
IC50 (TYK2): 386 nM
IC50 [4]: > 1000 nM

O=C(Nc1ccc2cc1CCc1cncc(c1)Nc1ncc(Cl)c(n1)NC2)c1ccccc1 [Example 18, N-[6-Chloro-2,4,8,19,23-pentaazatetracyclo[15.3.1.1(3,7).1(10,14)]tricosa-1(21),3(23),4,6,10(22),11,13,17,19-nonaen-13-yl]benzamide bis(trifluoroacetate)]
IC50 [1]: > 1000 nM
IC50 [2]: > 1000 nM
IC50 [3]: > 1000 nM
IC50 (TYK2): > 1000 nM
IC50 [4]: > 1000 nM

N#Cc1ccccc1S(=O)(=O)Nc1ccc2cc1CCc1cncc(c1)Nc1ncc(Cl)c(n1)NC2 [Example 19, N-[6-Chloro-2,4,8,19,23-pentaazatetracyclo[15.3.1.1(3,7).1(10,14)]tricosa-1(21),3(23),4,6,10(22),11,13,17,19-nonaen-13-yl]-2-cyanobenzenesulfonamide bis(trifluoroacetate)]
IC50 [1]: > 1000 nM
IC50 [2]: > 1000 nM
IC50 [3]: > 1000 nM
IC50 (TYK2): > 1000 nM
IC50 [4]: > 1000 nM
